Key:
[1] = Solution for forming organic semiconductor layer: kept in solution state in toluene at 25° C.; format: physicochemical; conditions: heated to 50° C. to dissolve, allowed to cool at room temperature (25° C.)
Procedure: In the air, in a 10 mL sample tube, 0.87 mg of 2,7-di(2-phenylethyl)dithienobiphenylene (Compound 1) synthesized in Example 1 and 434 mg of toluene (FUJIFILM Wako Pure Chemical Corporation, pure grade) was added and the resultant was heated to 50° C. to dissolve, and then allowed to cool at room temperature (25° C.) to thereby prepare a solution for forming an organic semiconductor layer.
The solution for forming an organic semiconductor layer was kept in a solution state after 10 hours at 25° C. (concentration of Compound 1: 0.20% by weight), confirming that this was a compound suitable for film formation by drop casting and inkjet.

[2] = as above; format: physicochemical; conditions: .44 mg in 434 mg of toluene; heated to 50° C., allowed to cool at 25° C.
[3] = generally; cited from earlier work
[4] = Bottom gate-bottom contact p-type organic thin film transistor, transfer characteristics; conditions: toluene solution, annealed at 130° C. for 10 min
Procedure: (§1) Furthermore, this organic thin film transistor was annealed at 130° C. for 10 min and then measured for an electric physical property.

[5] = Top gate-bottom contact p-type organic thin film transistor, transfer characteristics; conditions: annealed at 130° C. for 10 min
Procedure: The solution for forming an organic semiconductor layer obtained in Example 2 was used to produce a top gate-bottom contact p-type organic thin film transistor.
as §1

Compound | concentration of solution kept in a solution state after 10 hours at 25° C. [1] | also measured
CCCCCCCCc1cc2ccc3cc4c(ccc5cc(CCCCCCCC)sc54)cc3c2s1 [2,8-dioctylanthra[1,2-b:5,6-b′]dithiophene, reference compound] | 0.20 % by weight | –
CCCCCCCc1ccc(CCc2cc3ccc4cc5c(ccc6ccsc65)cc4c3s2)cc1 [Compound 18, 2-(2-(4-n-heptylphenyl)ethyl)anthra[1,2-b:5,6-b′]dithiophene] | 0.20 % by weight | –
c1ccc(CCc2cc3ccc4cc5c(ccc6ccsc65)cc4c3s2)cc1 [Compound 15, 2-(2-phenylethyl)anthra[1,2-b:5,6-b′]dithiophene] | 0.40 % by weight | –
COc1ccc(CCc2cc3ccc4cc5c(ccc6ccsc65)cc4c3s2)cc1 [Compound 24, 2-(2-(4-methoxyphenyl)ethyl)anthra[1,2-b:5,6-b′]dithiophene] | 0.10 % by weight | –
Cc1ccc(CCc2cc3ccc4c(c3s2)-c2ccc3ccsc3c2-4)cc1 [Compound 14, 2-(2-(4-methylphenyl)ethyl)dithienobiphenylene] | 1.00 % by weight | –
c1ccc(-c2ccc3c(c2)sc2c4ccc(-c5ccccc5)cc4sc32)cc1 [2,7-diphenyl[1]benzothieno[3,2-b][1]benzothiophene] | – | solution state after cooling to room temperature (solubility) [2]: a solid was deposited; solubility in an organic solvent [3]: almost insoluble
CCCCc1ccc(CCc2cc3ccc4cc5c(ccc6ccsc65)cc4c3s2)cc1 [Compound 17, 2-(2-(4-n-butylphenyl)ethyl)anthra[1,2-b:5,6-b′]dithiophene] | 1.00 % by weight | degradation in performance due to heat treatment [4]: almost no degradation in performance
2,7-di(2-(4-butylphenyl)ethyl)dithienobiphenylene [Compound 5] | 0.40 % by weight | –
c1ccc(CCc2cc3ccc4c(c3s2)-c2ccc3cc(CCc5ccccc5)sc3c2-4)cc1 [Compound 1, 2,7-di(2-phenylethyl)dithienobiphenylene] | 0.20 % by weight | degradation in performance due to heat treatment [4]: almost no degradation in performance; degradation in performance due to heat treatment [5]: almost no degradation in performance; melting point: 195 °C
CCCOc1ccc(CCc2cc3ccc4cc5c(ccc6ccsc65)cc4c3s2)cc1 [Compound 23, 2-(2-(4-propoxyphenyl)ethyl)anthra[1,2-b:5,6-b′]dithiophene] | 1.00 % by weight | –
c1ccc(CCc2cc3ccc4cc5c(ccc6cc(CCc7ccccc7)sc65)cc4c3s2)cc1 [Compound 10, 2,8-di(2-phenylethyl)anthra[1,2-b:5,6-b′]dithiophene] | 0.20 % by weight | –
c1ccc(CCc2cc3ccc4c(c3s2)-c2ccc3ccsc3c2-4)cc1 [Compound 13, 2-(2-phenylethyl)dithienobiphenylene] | 1.00 % by weight | melting point: 161 °C
2,7-di(2-(4-propylphenyl)ethyl)dithienobiphenylene [Compound 4] | 0.10 % by weight | –
CCCCCCCCc1ccc2c(c1)sc1c3ccc(CCCCCCCC)cc3sc21 [2,7-dioctyl[1]benzothieno[3,2-b][1]benzothiophene, reference compound] | 0.20 % by weight | degradation in performance due to heat treatment [4]: transistor operation was not achieved
2,7-di(2-(4-heptylphenyl)ethyl)dithienobiphenylene [Compound 6] | 0.20 % by weight | –
Cc1ccc(CCc2cc3ccc4cc5c(ccc6ccsc65)cc4c3s2)cc1 [Compound 16, 2-(2-(4-methylphenyl)ethyl)anthra[1,2-b:5,6-b′]dithiophene] | 0.50 % by weight | –

From US20230142592A1, “AROMATIC COMPOUND, ORGANIC SEMICONDUCTOR LAYER AND ORGANIC THIN FILM TRANSISTOR” (TOSOH CORPORATION, priority 2020, published 2023)
